Source: patent US10167279B2 (NOVARTIS AG, priority 2014, dated 2019)
pIC50: −log10 of the molar value.

Assays:
C-Raf FL = C-Raf FL (Homo sapiens (Human), UniProt P04049, Y340E/Y341E); test: In vitro Raf activity determination (Alpha Screen, phospho-MEK), C-Raf FL (full length, Y340E/Y341E); format: biochemical; settings: ATP 1 μM; 60 min pre-incubation; 1 hour reaction; column head does not say FL or TR
How it was run: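 Read-out is AlphaScreen luminescence using rabbit anti-p-MEK with protein A beads after EDTA stop, with IC50 fitted by non-linear regression. Reaction: Sf9-derived C-Raf plus biotinylated E. coli MEK1 K97R substrate, pH 7.5 Tris/MgCl2/DTT buffer, compound preincubated 60 min at room temperature.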

b-Raf (V600E) = b-Raf (V600E) (Homo sapiens (Human), UniProt P15056, V600E); test: In vitro Raf activity determination (Alpha Screen, phospho-MEK), b-Raf (V600E); format: biochemical; settings: ATP 10 μM, 60 min pre-incubation, 3 hours reaction
Excerpt: The activity of a compound according to the present invention can be assessed by well-known in vitro & in vivo methods. Raf inhibition data provided herein was obtained using the following procedures.
Sf9 cells co-expressing both proteins were lysed and subjected to immobilized nickel chromatography and eluted with Imidazole. A second column (StrepII binding column) was used and eluted with desthiobiotin. Protein Tags were removed using Prescission enzyme and the protein was further purified using a flowthrough step to remove tags.
Full length MEK1 with an inactivating K97R ATP binding site mutation is utilized as a RAF substrate. The MEK1 cDNA was subcloned with an N-terminal (his)6 tag into a vector for E. Coli expression. The MEK1 substrate was purified from E. Coli lysate by nickel affinity chromatography followed by anion exchange. The final MEK1 preparation was biotinylated (Pierce EZ-Link Sulfo-NHS-LC-Biotin) and concentrated.
The plate was incubated for 60 minutes at room temperature. […] The additions were carried out under dark conditions to protect the detection beads from light. A lid was placed on top of the plate and incubated for 1 hour at room temperature, after which the luminescence was read on a PerkinElmer Envision instrument.

b-Raf (V600E), sequence (P15056 whole entry V600E): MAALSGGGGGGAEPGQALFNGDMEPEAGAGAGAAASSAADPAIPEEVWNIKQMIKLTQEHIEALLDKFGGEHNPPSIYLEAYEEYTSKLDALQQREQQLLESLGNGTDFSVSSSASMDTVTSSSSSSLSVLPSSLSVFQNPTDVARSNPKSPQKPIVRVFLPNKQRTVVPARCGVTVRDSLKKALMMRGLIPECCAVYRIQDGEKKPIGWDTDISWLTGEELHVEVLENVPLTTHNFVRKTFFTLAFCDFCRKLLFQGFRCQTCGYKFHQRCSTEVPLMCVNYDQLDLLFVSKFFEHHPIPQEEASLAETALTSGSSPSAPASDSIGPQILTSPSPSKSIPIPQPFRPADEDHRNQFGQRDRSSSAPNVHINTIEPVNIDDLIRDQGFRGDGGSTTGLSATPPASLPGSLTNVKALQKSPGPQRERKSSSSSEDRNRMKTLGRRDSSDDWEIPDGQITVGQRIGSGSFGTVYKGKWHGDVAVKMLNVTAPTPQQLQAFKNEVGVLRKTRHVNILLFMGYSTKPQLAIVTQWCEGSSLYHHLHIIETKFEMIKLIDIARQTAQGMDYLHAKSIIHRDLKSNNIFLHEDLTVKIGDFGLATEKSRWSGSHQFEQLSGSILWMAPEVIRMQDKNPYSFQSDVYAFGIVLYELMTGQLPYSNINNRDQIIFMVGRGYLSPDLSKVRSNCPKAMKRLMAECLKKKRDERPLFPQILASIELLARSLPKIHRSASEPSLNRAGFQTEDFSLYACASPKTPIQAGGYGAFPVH
C-Raf FL, sequence (P04049 whole entry Y340E/Y341E): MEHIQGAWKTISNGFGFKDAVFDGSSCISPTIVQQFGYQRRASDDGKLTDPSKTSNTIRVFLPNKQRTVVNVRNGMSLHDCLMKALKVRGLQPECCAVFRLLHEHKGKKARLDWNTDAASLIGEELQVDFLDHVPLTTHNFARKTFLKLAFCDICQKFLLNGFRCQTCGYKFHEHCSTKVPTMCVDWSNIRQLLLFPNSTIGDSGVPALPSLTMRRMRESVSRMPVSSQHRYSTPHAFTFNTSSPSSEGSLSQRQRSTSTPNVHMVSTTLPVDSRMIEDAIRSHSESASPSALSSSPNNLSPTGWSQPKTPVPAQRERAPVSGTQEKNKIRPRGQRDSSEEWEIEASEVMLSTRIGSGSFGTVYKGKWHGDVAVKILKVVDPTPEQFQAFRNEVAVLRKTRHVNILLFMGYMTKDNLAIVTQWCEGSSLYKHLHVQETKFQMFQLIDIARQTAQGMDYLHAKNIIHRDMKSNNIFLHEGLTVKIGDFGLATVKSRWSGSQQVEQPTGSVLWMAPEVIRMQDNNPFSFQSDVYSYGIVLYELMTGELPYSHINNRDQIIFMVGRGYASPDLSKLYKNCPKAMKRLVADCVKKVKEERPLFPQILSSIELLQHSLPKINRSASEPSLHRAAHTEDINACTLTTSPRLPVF
C-Raf FL, sequence (P63104 whole entry partner): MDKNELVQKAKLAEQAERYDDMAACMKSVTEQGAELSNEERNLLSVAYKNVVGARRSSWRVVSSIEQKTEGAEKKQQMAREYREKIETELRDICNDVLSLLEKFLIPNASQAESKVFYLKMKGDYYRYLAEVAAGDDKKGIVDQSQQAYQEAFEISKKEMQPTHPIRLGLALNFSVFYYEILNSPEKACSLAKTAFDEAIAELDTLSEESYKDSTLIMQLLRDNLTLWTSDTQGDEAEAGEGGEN

| SMILES | pIC50 (C-Raf FL) | pIC50 (b-Raf (V600E)) |
| --- | --- | --- |
| COc1ncc(-c2cc(NC(=O)c3ccnc(C(F)(F)F)c3)ccc2C)cc1C1(O)COC1 [Example 71, N-(3-(5-(3-hydroxyoxetan-3-yl)-6-methoxypyridin-3-yl)-4-methylphenyl)-2-(trifluoromethyl)isonicotin-amide] | 9.45 | 8.55 |
| COc1ncc(-c2cc(NC(=O)c3ccnc(C(C)(C)C#N)c3)ccc2C)cc1C1(O)COC1 [Example 72, 2-(2-cyanopropan-2-yl)-N-(3-(5-(3-hydroxyoxetan-3-yl)-6-methoxypyridin-3-yl)-4-methylphenyl)isonicotin-amide] | 8.99 | 8.38 |
| COc1ncc(-c2cc(NC(=O)c3ccnc(C(C)(C)O)c3)ccc2C)cc1C1(O)COC1 [Example 73, N-(3-(5-(3-hydroxyoxetan-3-yl)-6-methoxypyridin-3-yl)-4-methylphenyl)-2-(2-hydroxypropan-2-yl)isonicotinamide] | 8.51 | 7.63 |
| COc1ncc(-c2cc(NC(=O)c3ccnc(C(C)(F)F)c3)ccc2C)cc1C1(O)COC1 [Example 74, 2-(1,1-difluoroethyl)-N-(3-(5-(3-hydroxyoxetan-3-yl)-6-methoxypyridin-3-yl)-4-methylphenyl)isonicotin-amide] | 9.44 | 8.68 |
| COc1ncc(-c2cc(NC(=O)c3ccnc(C(F)(F)F)c3)cnc2C)cc1C1(O)COC1 [Example 75, N-(5′-(3-hydroxyoxetan-3-yl)-6′-methoxy-2-methyl-[3,3′-bipyridin]-5-yl)-2-(trifluoromethyl)isonicotin-amide] | 8.20 | 7.12 |
| COc1ncc(-c2cc(NC(=O)c3ccnc(C(C)(C)F)c3)cnc2C)cc1C1(O)COC1 [Example 76, 2-(2-fluoropropan-2-yl)-N-(5′-(3-hydroxyoxetan-3-yl)-6′-methoxy-2-methyl-[3,3′-bipyridin]-5-yl)isonicotinamide] | 8.41 | 7.64 |
| COc1ncc(-c2cc(NC(=O)c3ccnc(C(C)(F)F)c3)cnc2C)cc1C1(O)COC1 [Example 77, 2-(1,1-difluoroethyl)-N-(5′-(3-hydroxyoxetan-3-yl)-6′-methoxy-2-methyl-[3,3′-bipyridin]-5-yl)isonicotinamide] | 8.45 | 7.62 |
| COc1ncc(-c2cc(NC(=O)c3cc(C(F)(F)F)ccn3)cnc2C)cc1C1(O)COC1 [Example 78, N-(5′-(3-hydroxyoxetan-3-yl)-6′-methoxy-2-methyl-[3,3′-bipyridin]-5-yl)-4-(trifluoromethyl)picolin-amide] | 8.49 | 7.63 |
| COc1ncc(-c2cc(NC(=O)c3ccnc(C(F)(F)F)c3)cnc2C)cc1C1(F)COC1 [Example 79, N-(5′-(3-fluorooxetan-3-yl)-6′-methoxy-2-methyl-[3,3′-bipyridin]-5-yl)-2-(trifluoromethyl)isonicotin-amide] | 9.31 | 8.40 |
| COc1ncc(-c2cc(NC(=O)c3ccnc(C(C)(C)O)c3)cnc2C)cc1C1(F)COC1 [Example 81, N-(5′-(3-fluorooxetan-3-yl)-6′-methoxy-2-methyl-[3,3′-bipyridin]-5-yl)-2-(2-hydroxypropan-2-yl)isonicotinamide] | 8.31 | 7.46 |
| COc1ncc(-c2cc(NC(=O)c3ccnc(C(C)(C)F)c3)cnc2C)cc1C1(F)COC1 [Example 82, N-(5′-(3-fluorooxetan-3-yl)-6′-methoxy-2-methyl-[3,3′-bipyridin]-5-yl)-2-(2-fluoropropan-2-yl)isonicotinamide] | 8.95 | 8.43 |
| COc1ncc(-c2cc(NC(=O)c3cc(C(F)(F)F)ccn3)cnc2C)cc1C1(F)COC1 [Example 83, N-(5′-(3-fluorooxetan-3-yl)-6′-methoxy-2-methyl-[3,3′-bipyridin]-5-yl)-4-(trifluoromethyl)picolin-amide] | 10.87 | 10.23 |
| COc1ncc(-c2cc(NC(=O)c3cc(C(F)(F)F)ccn3)ccc2C)cc1C1(O)COC1 [Example 84, N-(3-(5-(3-hydroxyoxetan-3-yl)-6-methoxypyridin-3-yl)-4-methylphenyl)-4-(trifluoromethyl)picolin-amide] | 9.45 | 8.66 |
| COc1ncc(-c2cc(NC(=O)c3cc(C(C)(C)C#N)ccn3)ccc2C)cc1C1(O)COC1 [Example 85, 4-(2-cyanopropan-2-yl)-N-(3-(5-(3-hydroxyoxetan-3-yl)-6-methoxypyridin-3-yl)-4-methylphenyl)picolinamide] | 8.93 | 8.19 |
| COc1ncc(-c2cc(NC(=O)c3cc(C(C)(C)C#N)ccn3)cnc2C)cc1C1(F)COC1 [Example 86, 4-(2-cyanopropan-2-yl)-N-(5′-(3-fluorooxetan-3-yl)-6′-methoxy-2-methyl-[3,3′-bipyridin]-5-yl)picolinamide] | 8.63 | 7.83 |
| COc1ncc(-c2cc(NC(=O)c3cc(C(C)(C)C#N)ccn3)ccc2C)cc1C1(F)COC1 [Example 87] | 9.21 | 8.45 |
| COc1ncc(-c2cc(NC(=O)c3cc(C(F)(F)F)ccn3)ccc2C)cc1C1(F)COC1 [Example 88, N-(3-(5-(3-fluorooxetan-3-yl)-6-methoxypyridin-3-yl)-4-methylphenyl)-4-(trifluoromethyl)picolin-amide] | 9.52 | 9.03 |
| COc1ncc(-c2cc(NC(=O)c3cc(C(C)(F)F)ccn3)cnc2C)cc1C1(F)COC1 [Example 90, 4-(1,1-difluoroethyl)-N-(5′-(3-fluorooxetan-3-yl)-6′-methoxy-2-methyl-[3,3′-bipyridin]-5-yl)picolinamide] | 9.41 | 8.44 |
| COc1ncc(-c2cc(NC(=O)c3cc(C(C)(F)F)ccn3)ccc2C)cc1C1(O)COC1 [Example 92, 4-(1,1-difluoroethyl)-N-(3-(5-(3-hydroxyoxetan-3-yl)-6-methoxypyridin-3-yl)-4-methylphenyl)picolinamide] | 9.48 | 8.66 |
| COc1ncc(-c2cc(NC(=O)c3cc(C(C)(C)F)ccn3)cnc2C)cc1C1(F)COC1 [Example 93, N-(5′-(3-fluorooxetan-3-yl)-6′-methoxy-2-methyl-[3,3′-bipyridin]-5-yl)-4-(2-fluoropropan-2-yl)picolinamide] | 8.99 | 8.10 |
| COc1ncc(-c2cc(NC(=O)c3cc(C(C)(C)F)ccn3)cnc2C)cc1C1(O)COC1 [Example 94, 4-(2-fluoropropan-2-yl)-N-(5′-(3-hydroxyoxetan-3-yl)-6′-methoxy-2-methyl-[3,3′-bipyridin]-5-yl)picolinamide] | 8.37 | 7.50 |
| COc1ncc(-c2cc(NC(=O)c3cc(C(C)(C)F)ccn3)ccc2C)cc1C1(O)COC1 [Example 95, 4-(2-fluoropropan-2-yl)-N-(3-(5-(3-hydroxyoxetan-3-yl)-6-methoxypyridin-3-yl)-4-methylphenyl)picolinamide] | 9.29 | 8.41 |
| COc1ncc(-c2cc(NC(=O)c3cc(C(C)(C)O)ccn3)ccc2C)cc1C1(F)COC1 [Example 96, N-(3-(5-(3-fluorooxetan-3-yl)-6-methoxypyridin-3-yl)-4-methylphenyl)-4-(2-hydroxypropan-2-yl)picolinamide] | 9.32 | 8.38 |
| COc1ncc(-c2cc(NC(=O)c3cccc(C(F)(F)F)c3)cnc2C)cc1C1(O)COC1 [Example 97, N-(5′-(3-hydroxyoxetan-3-yl)-6′-methoxy-2-methyl-[3,3′-bipyridin]-5-yl)-3-(trifluoromethyl)benzamide] | 8.85 | 7.98 |
| COc1ncc(-c2cc(NC(=O)c3ccnc(C(F)F)c3)ccc2C)cc1C1(O)COC1 [Example 98, 2-(difluoromethyl)-N-(3-(5-(3-hydroxyoxetan-3-yl)-6-methoxypyridin-3-yl)-4-methylphenyl)isonicotin-amide] | 8.96 | 7.88 |
| COc1ncc(-c2cc(NC(=O)c3ccnc(C(C)(C)F)c3)ccc2C)cc1C1(O)COC1 [Example 99, 2-(2-fluoropropan-2-yl)-N-(3-(5-(3-hydroxyoxetan-3-yl)-6-methoxypyridin-3-yl)-4-methylphenyl)isonicotin-amide] | 9.38 | 8.57 |
| COc1ncc(-c2cc(NC(=O)c3ccnc(C4(C#N)CC4)c3)ccc2C)cc1C1(O)COC1 [Example 100] | 9.52 | 8.66 |
| COc1ncc(-c2cc(NC(=O)c3cc(C(C)(C)N)cc(C(F)(F)F)c3)ccc2C)cc1C1(O)COC1 [Example 101, 3-(2-aminopropan-2-yl)-N-(3-(5-(3-hydroxyoxetan-3-yl)-6-methoxypyridin-3-yl)-4-methylphenyl)-5-(trifluoromethyl)benzamide] | 8.84 | 8.19 |
| COc1ncc(-c2cc(NC(=O)c3cc(C(C)(C)N)cc(C(F)(F)F)c3)cnc2C)cc1C1(F)COC1 [Example 102, 3-(2-aminopropan-2-yl)-N-(5′-(3-fluorooxetan-3-yl)-6′-methoxy-2-methyl-[3,3′-bipyridin]-5-yl)-5-(trifluoromethyl)benzamide] | 8.57 | 7.88 |
